Assay results taken from ChEMBL document CHEMBL3351221, “Synthetic derivatives of aromatic abietane diterpenoids and their biological activities” (Eur J Med Chem, 2014).
≈ marks a conversion by molar mass, not a printed value.

Experiments:
[1] = test system: Staphylococcus aureus; experiment: Antimicrobial activity against methicillin-resistant Staphylococcus aureus; format: functional
[2] = test system: Enterococcus; experiment: Antimicrobial activity against Vancomycin-resistant Enterococcus; format: functional
[3] = Cytotoxicity against human HL60 cells; format: functional, cell-based; conditions: HL-60
[4] = test system: Mus musculus; experiment: Gastroprotective activity in mouse assessed as reduction in HCl/EtOH-induced gastric lesions at 100 mg/kg; format: functional; conditions: Stomach
[5] = test system: AGS; experiment: Cytotoxicity against human AGS cells; format: cell-based
[6] = test system: MRC5; experiment: Cytotoxicity against human MRC5 cells; format: cell-based
[7] = test system: Pseudomonas fluorescens; experiment: Antimicrobial activity against Pseudomonas fluorescens; format: functional
[8] = test system: Escherichia coli; experiment: Antimicrobial activity against Escherichia coli; format: functional
[9] = test system: SMMC-7721; experiment: Cytotoxicity against human SMMC7721 cells; format: functional, cell-based
[10] = test system: Staphylococcus aureus; experiment: Antimicrobial activity against Staphylococcus aureus; format: functional
[11] = Cytotoxicity against human Hey-1B cells; format: functional, cell-based

CC(C)c1cc2c(cc1O)[C@@]1(C)CCCC(C)(C)[C@@H]1[C@H](O)C2
MIC [1]: 4 µg/mL (≈ 13.2 µM) | MIC [2]: 4 µg/mL (≈ 13.2 µM)

COC(=O)[C@H](C)NC(=O)[C@]1(C)CCC[C@]2(C)c3ccc(C(C)C)cc3CC[C@@H]12
IC50 [3]: 2.3 µM

Cc1cc(C)cc(NC(=O)[C@]2(C)CCC[C@]3(C)c4ccc(C(C)C)cc4CC[C@@H]23)c1
inhibition in vivo at 100 mg/kg [4]: 67% | IC50 [5]: > 1000 µM | IC50 [6]: > 1000 µM

Cc1ccc(NC(=O)[C@]2(C)CCC[C@]3(C)c4ccc(C(C)C)cc4CC[C@@H]23)cc1
inhibition in vivo at 100 mg/kg [4]: 67% | IC50 [5]: > 1000 µM | IC50 [6]: > 1000 µM

COc1ccc(NC(=O)[C@]2(C)CCC[C@]3(C)c4ccc(C(C)C)cc4CC[C@@H]23)cc1
inhibition in vivo at 100 mg/kg [4]: 67% | IC50 [5]: > 1000 µM | IC50 [6]: > 1000 µM

CC(C)c1ccc2c(c1)CC[C@H]1[C@](C)(C(=O)Nc3cccc([N+](=O)[O-])c3)CCC[C@]21C
inhibition in vivo at 100 mg/kg [4]: 67% | IC50 [5]: > 1000 µM | IC50 [6]: > 1000 µM

CC(C)c1ccc2c(c1)CC[C@H]1[C@](C)(C(=O)Nc3ccccc3Cl)CCC[C@]21C
inhibition in vivo at 100 mg/kg [4]: 67% | IC50 [5]: > 1000 µM | IC50 [6]: > 1000 µM

CC(C)c1ccc2c(c1)CC[C@H]1[C@](C)(C(=O)Nc3ccc(I)cc3)CCC[C@]21C
inhibition in vivo at 100 mg/kg [4]: 67% | IC50 [5]: > 1000 µM | IC50 [6]: > 1000 µM

CC(C)c1ccc2c(c1)CC[C@H]1[C@](C)(C(=O)N/N=C/c3ccc(Cl)c([N+](=O)[O-])c3)CCC[C@]21C
MIC [7]: 3.9 µg/mL (≈ 8.09 µM) | MIC [8]: 3.9 µg/mL (≈ 8.09 µM)

CC(C)c1ccc2c(c1)CC[C@H]1[C@](C)(NC(=O)Nc3ccc(F)cc3)CCC[C@]21C
IC50 [9]: 8.8 µM

CC(C)c1ccc2c(c1)CC[C@H]1[C@](C)(NC(=O)Nc3cc(F)cc(F)c3)CCC[C@]21C
IC50 [9]: 8.8 µM

CC(C)c1ccc2c(c1)CC[C@H]1[C@](C)(NC(=O)N3CCCCC3)CCC[C@]21C
IC50 [9]: 8.8 µM

CC(C)c1ccc2c(c1)CC[C@H]1[C@](C)(C/N=C/c3ccc(F)cc3)CCC[C@]21C
IC50 [9]: 44.5 µM

COC(=O)C[C@H](NC(=O)[C@]1(C)CCC[C@]2(C)c3ccc(C(C)C)cc3CC[C@@H]12)C(=O)OC
IC50 [3]: 2.3 µM

CCC(C)[C@H](NC(=O)[C@]1(C)CCC[C@]2(C)c3ccc(C(C)C)cc3CC[C@@H]12)C(=O)OC (some centres not stated)
IC50 [3]: 2.3 µM

COC(=O)[C@H](Cc1ccccc1)NC(=O)[C@]1(C)CCC[C@]2(C)c3ccc(C(C)C)cc3CC[C@@H]12
IC50 [3]: 2.3 µM

COC(=O)[C@H](CO)NC(=O)[C@]1(C)CCC[C@]2(C)c3ccc(C(C)C)cc3CC[C@@H]12
IC50 [3]: 2.3 µM

COC(=O)[C@@H](NC(=O)[C@]1(C)CCC[C@]2(C)c3ccc(C(C)C)cc3CC[C@@H]12)C(C)C
IC50 [3]: 2.3 µM

CC(C)c1ccc2c(c1)CC[C@H]1[C@](C)(C[N+](C)(C)C)CCC[C@]21C.COS(=O)(=O)[O-]
MIC [8]: 250 µg/mL | MIC [10]: 7.81 µg/mL

CC(C)c1ccc2c(c1)CC[C@H]1[C@](C)(CNCCO)CCC[C@]21C.Cl
MIC [8]: 250 µg/mL | MIC [10]: 7.81 µg/mL

CC(C)c1ccc2c(c1)CC[C@H]1[C@](C)(CNCc3ccccc3)CCC[C@]21C.Cl
MIC [8]: 250 µg/mL | MIC [10]: 7.81 µg/mL

CC(C)c1ccc2c(c1)CC[C@H]1[C@](C)(C[N+](C)(CCO)CCO)CCC[C@]21C.COS(=O)(=O)[O-]
MIC [8]: 250 µg/mL | MIC [10]: 7.81 µg/mL

CC(C)c1ccc2c(c1)CC[C@H]1[C@](C)(C[N+](CCO)(CCO)CCO)CCC[C@]21C.[Cl-]
MIC [8]: 250 µg/mL | MIC [10]: 7.81 µg/mL

CC(C)c1ccc2c(c1)CC[C@H]1[C@](C)(C[N+](CCO)(CCO)Cc3ccccc3)CCC[C@]21C.[Cl-]
MIC [8]: 250 µg/mL | MIC [10]: 7.81 µg/mL

CC(=O)NC[C@]1(C)CCC[C@]2(C)c3cc(/N=C/c4cc(Br)cc(Br)c4O)c(C(C)C)cc3CC[C@@H]12
IC50 [11]: 15 µg/mL (≈ 24.8 µM)

CC(=O)NC[C@]1(C)CCC[C@]2(C)c3cc(/N=C/c4ccc(O)cc4O)c(C(C)C)cc3CC[C@@H]12
IC50 [11]: 15 µg/mL (≈ 32.4 µM)

CC(=O)NC[C@]1(C)CCC[C@]2(C)c3cc(/N=C/c4cccc(O)c4)c(C(C)C)cc3CC[C@@H]12
IC50 [11]: 15 µg/mL (≈ 33.6 µM)

CC(=O)NC[C@]1(C)CCC[C@]2(C)c3cc(/N=C/c4cc(O)ccc4O)c(C(C)C)cc3CC[C@@H]12
IC50 [11]: 15 µg/mL (≈ 32.4 µM)

COc1ccc(/C=N/c2cc3c(cc2C(C)C)CC[C@H]2[C@](C)(CNC(C)=O)CCC[C@]32C)cc1
IC50 [11]: 15 µg/mL (≈ 32.6 µM)

COc1ccc(NC(=O)[C@]2(C)CCC[C@]3(C)c4ccc(C(C)C)cc4CC[C@@H]23)c(OC)c1
inhibition in vivo at 100 mg/kg [4]: 67% | IC50 [5]: > 1000 µM | IC50 [6]: > 1000 µM
